Experimental findings from patent US11897862B2 (Gilead Sciences, Inc., priority 2022, dated 2024) are described below.

Where only a bound is given, the exact number is not on record here.

For orientation: Dmax means the greatest extent of degradation seen. A higher Dmax goes with a fuller loss of target.

Experiment [1] addresses T1, IKZF1 (Homo sapiens, UniProt Q13422+Q96SW2).
T1 construct: expressed in transfected cells
The experiment is described as follows: HEK293 HiBiT in vitro degradation of IKZF1. Type of experiment: cell-based. The conditions noted are these: for DC50 / IKZF1 Dmax: HEK293 HiBiT; for DC50: 18-24 hr incubation, normalized to DMSO control, read-out: IKZF1 EC50; for IKZF1 Dmax / Dmax: maximum degradation at the highest concentration tested; for Dmax: HEK293, HEK293 HiBiT. The method, boiled down:
(§1)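 Flp-In T-REx HEK293 pools stably expressing C-terminal HiBiT-tagged IKZF1, IKZF2 or SALL4 (single-copy, Tet-On), induced overnight with […] doxycycline. Cells exposed to serially diluted compounds for 18-24 hr at 37° C. Nano-Glo lytic luminescence gave EC50 and Dmax.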
(In general: HiBiT is a short tag that completes a luciferase, so light tracks the accessible tagged protein.)

In experiment [2] the target is IKZF2 (Homo sapiens, UniProt Q96SW2+Q9UKS7). The experiment is described as follows: HEK293 HiBiT in vitro degradation of IKZF2. Type of experiment: cell-based. The arrangement: expressed in transfected cells. Particulars: for DC50 / IKZF2 Dmax: HEK293 HiBiT; for DC50: 18-24 hr incubation, normalized to DMSO control, read-out: IKZF2 EC50; for IKZF2 Dmax / Dmax: maximum degradation at the highest concentration tested; for Dmax: HEK293, HEK293 HiBiT. The method, boiled down:
as §1

Sequence of IKZF2 (Q9UKS7 1-500 isoform Q9UKS7-2): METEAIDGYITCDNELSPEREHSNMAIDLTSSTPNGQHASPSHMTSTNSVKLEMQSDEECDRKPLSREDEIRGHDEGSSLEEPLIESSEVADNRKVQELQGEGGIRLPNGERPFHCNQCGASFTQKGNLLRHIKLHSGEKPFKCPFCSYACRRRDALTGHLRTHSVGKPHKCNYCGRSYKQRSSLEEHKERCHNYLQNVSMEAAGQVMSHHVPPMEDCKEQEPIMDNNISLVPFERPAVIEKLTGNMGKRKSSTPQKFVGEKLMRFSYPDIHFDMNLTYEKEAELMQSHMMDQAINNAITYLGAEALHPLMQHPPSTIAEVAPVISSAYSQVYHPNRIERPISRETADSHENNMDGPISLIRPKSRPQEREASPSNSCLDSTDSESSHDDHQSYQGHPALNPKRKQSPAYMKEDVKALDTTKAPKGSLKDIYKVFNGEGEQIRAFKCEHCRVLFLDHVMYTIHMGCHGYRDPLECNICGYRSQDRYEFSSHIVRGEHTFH
Sequence of IKZF2 (Q96SW2 whole entry): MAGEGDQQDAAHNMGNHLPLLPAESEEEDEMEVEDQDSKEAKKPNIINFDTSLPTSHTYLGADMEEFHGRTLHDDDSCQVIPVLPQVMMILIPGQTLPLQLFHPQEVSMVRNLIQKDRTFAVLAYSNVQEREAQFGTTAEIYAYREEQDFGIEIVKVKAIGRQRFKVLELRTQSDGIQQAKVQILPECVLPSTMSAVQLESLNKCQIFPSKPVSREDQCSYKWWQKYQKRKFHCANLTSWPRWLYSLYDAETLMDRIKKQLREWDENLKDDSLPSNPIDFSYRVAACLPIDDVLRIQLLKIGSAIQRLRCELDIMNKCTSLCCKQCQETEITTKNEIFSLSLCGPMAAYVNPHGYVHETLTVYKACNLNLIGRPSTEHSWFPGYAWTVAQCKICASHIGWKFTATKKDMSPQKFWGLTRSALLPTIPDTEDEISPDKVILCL
Sequence of IKZF2 (Q16531 whole entry partner): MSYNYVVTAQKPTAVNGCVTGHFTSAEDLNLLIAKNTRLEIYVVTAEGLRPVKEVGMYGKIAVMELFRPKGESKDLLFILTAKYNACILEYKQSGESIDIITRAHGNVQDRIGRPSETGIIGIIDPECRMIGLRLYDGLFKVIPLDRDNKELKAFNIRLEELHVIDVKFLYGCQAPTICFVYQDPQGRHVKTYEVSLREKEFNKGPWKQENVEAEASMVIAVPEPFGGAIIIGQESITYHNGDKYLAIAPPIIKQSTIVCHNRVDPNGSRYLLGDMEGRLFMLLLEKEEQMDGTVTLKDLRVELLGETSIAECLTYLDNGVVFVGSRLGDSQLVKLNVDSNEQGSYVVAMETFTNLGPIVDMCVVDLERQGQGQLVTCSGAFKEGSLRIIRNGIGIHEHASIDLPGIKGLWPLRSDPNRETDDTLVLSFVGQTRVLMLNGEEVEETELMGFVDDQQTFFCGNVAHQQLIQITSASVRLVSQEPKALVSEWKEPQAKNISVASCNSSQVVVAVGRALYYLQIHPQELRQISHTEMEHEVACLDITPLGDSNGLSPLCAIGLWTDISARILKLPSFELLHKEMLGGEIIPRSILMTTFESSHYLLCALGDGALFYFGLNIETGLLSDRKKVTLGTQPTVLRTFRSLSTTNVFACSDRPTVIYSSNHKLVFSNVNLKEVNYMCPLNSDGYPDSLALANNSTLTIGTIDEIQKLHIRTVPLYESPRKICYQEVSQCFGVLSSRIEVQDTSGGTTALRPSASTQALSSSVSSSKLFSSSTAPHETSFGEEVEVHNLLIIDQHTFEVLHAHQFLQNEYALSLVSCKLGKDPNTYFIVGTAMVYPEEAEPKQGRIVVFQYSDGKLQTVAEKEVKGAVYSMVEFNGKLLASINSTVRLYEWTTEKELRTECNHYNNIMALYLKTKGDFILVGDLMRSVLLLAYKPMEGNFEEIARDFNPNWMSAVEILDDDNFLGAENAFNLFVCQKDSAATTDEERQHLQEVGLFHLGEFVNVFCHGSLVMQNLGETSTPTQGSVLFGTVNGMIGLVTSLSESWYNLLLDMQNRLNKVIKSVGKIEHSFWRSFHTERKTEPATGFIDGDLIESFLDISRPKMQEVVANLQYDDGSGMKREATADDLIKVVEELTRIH
T1 sequence (Q13422 whole entry): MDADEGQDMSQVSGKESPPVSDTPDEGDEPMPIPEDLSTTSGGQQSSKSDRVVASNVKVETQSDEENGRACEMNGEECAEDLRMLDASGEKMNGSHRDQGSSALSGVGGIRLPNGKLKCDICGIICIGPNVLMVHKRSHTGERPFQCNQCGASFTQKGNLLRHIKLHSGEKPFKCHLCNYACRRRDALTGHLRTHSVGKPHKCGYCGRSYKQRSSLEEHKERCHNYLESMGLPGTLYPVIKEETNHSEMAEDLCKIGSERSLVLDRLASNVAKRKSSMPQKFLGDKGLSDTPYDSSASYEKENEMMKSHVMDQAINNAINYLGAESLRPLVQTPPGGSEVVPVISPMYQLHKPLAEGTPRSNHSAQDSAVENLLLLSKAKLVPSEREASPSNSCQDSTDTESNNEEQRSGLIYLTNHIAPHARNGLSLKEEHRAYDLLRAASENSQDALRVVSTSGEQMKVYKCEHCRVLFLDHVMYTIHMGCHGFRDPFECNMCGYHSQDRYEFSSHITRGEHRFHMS
T1 sequence (Q96SW2 whole entry): as the sequence (Q96SW2 whole entry) above
T1 sequence (Q16531 whole entry partner): as the sequence (Q16531 whole entry partner) above

With `O=C1CCC(N2Cc3c(ccc(C[C@H]4CCCC[C@@H]4NC4CCOC4)c3F)C2=O)C(=O)N1` (stereo partly shown) [Example 190], in experiment [1], the DC50 worked out at 57 nM and the “IKZF1 Dmax” value stood at 44%. Also, in experiment [2], the DC50 was 2 nM and the “IKZF2 Dmax” value worked out at 97%.

On to `O=C1CCC(N2Cc3cc(C[C@H]4CCCC[C@@H]4NC4CC5CCC(C5)C4)ccc3C2=O)C(=O)N1` (stereo partly shown) [Example 191], for which the results for the Dmax in experiment [1] and in experiment [2] were 30% and 97%, respectively. Besides, the figures for the DC50 in experiment [1] and in experiment [2] were 63 nM and 2 nM, respectively.

Consider `CC1(C)COCCC1N[C@H]1CCCC[C@@H]1Cc1ccc2c(c1)CN(C1CCC(=O)NC1=O)C2=O` (stereo partly shown) [Example 192], for which the DC50 in experiment [1] was over 10000 nM. For the same molecule, in experiment [2], the Dmax stood at 94% and the DC50 is 6 nM.

On to `O=C1CCC(N2Cc3cc(C[C@H]4CCCC[C@@H]4NC4CC5CCC4O5)ccc3C2=O)C(=O)N1` (stereo partly shown) [Example 193], for which the DC50 in experiment [1] is over 1000 nM. In experiment [2], the Dmax came to 96% and the DC50 stood at 7 nM.

Take `O=C1CCC(N2Cc3cc(C[C@H]4CCCC[C@@H]4NC4C5CCC4COC5)ccc3C2=O)C(=O)N1` (stereo partly shown) [Example 194]: the figures for the DC50 in experiment [1] and in experiment [2] were over 1000 nM and 20 nM, respectively. Also, in experiment [2], the Dmax amounted to 92%.

On to `O=C1CCC(N2Cc3cc(C[C@H]4CCCC[C@@H]4NC4CCC5COC4O5)ccc3C2=O)C(=O)N1` (stereo partly shown) [Example 195], for which the DC50 in experiment [1] is over 1000 nM. Moreover, in experiment [2], the Dmax was determined as 96% and the DC50 came to 9 nM.

For the molecule `O=C1CCC(N2Cc3cc(C[C@H]4CCCC[C@@H]4NC4CCCOCC4)ccc3C2=O)C(=O)N1` (stereo partly shown) [Example 197], in experiment [1], the Dmax was 22% and the DC50 was determined as 68 nM. Also, in experiment [2], the Dmax is 97% and the DC50 was determined as 5 nM.

In the case of `O=C1CCC(N2Cc3cc(C[C@H]4CCCC[C@@H]4NC4C[C@H]5COC[C@H]5C4)ccc3C2=O)C(=O)N1` (stereo partly shown) [Example 198], the DC50 in experiment [1] is over 1000 nM. In addition, in experiment [2], the Dmax came out at 97% and the DC50 amounted to 16 nM.

On to `O=C1CCC(N2Cc3cc(C[C@H]4CCCC[C@@H]4NC4C5CCCC4CC5)ccc3C2=O)C(=O)N1` (stereo partly shown) [Example 199], for which, in experiment [1], the DC50 was over 10000 nM. In experiment [2], the Dmax is 95% and the DC50 turned out to be 10 nM.

Regarding `CC(N[C@H]1CCCC[C@@H]1Cc1ccc2c(c1)CN(C1CCC(=O)NC1=O)C2=O)C1CCOCC1` (stereo partly shown) [Example 200], the DC50 in experiment [1] was over 1000 nM; in experiment [2] it was 4 nM. This molecule displayed a Dmax in experiment [2] of 96%.

As for `CC(N[C@H]1CCCC[C@@H]1Cc1ccc2c(c1)CN(C1CCC(=O)NC1=O)C2=O)C1CCCC1` (stereo partly shown) [Example 201], the DC50 in experiment [1] is over 1000 nM. Moreover, in experiment [2], the Dmax turned out to be 96% and the DC50 turned out to be 7 nM.

As for `CC(N[C@H]1CCCC[C@@H]1Cc1ccc2c(c1)CN(C1CCC(=O)NC1=O)C2=O)C1CCCC1` (stereo partly shown) [Example 202], in experiment [1], the DC50 is over 1000 nM. For the same molecule, in experiment [2], the DC50 stood at 8 nM and the “IKZF2 Dmax” value was 95%.

Take `CC(N[C@H]1CCCC[C@@H]1Cc1ccc2c(c1)CN(C1CCC(=O)NC1=O)C2=O)C1CCCCC1` (stereo partly shown) [Example 203]: in experiment [1], the DC50 was over 1000 nM. In experiment [2], the Dmax is 95% and the DC50 is 13 nM.

As for `CC(CC1CC1)N[C@H]1CCCC[C@@H]1Cc1ccc2c(c1)CN(C1CCC(=O)NC1=O)C2=O` (stereo partly shown) [Example 204], the DC50 in experiment [1] was over 1000 nM. In experiment [2], the Dmax was 97% and the DC50 worked out at 4 nM.

As for `CC(CC(C)(C)C)N[C@H]1CCCC[C@@H]1Cc1ccc2c(c1)CN(C1CCC(=O)NC1=O)C2=O` (stereo partly shown) [Example 205], the DC50 in experiment [1] is over 1000 nM; in experiment [2] it was 3 nM. In experiment [2], this molecule gave a Dmax of 98%.

Take `CC(N[C@H]1CCCC[C@@H]1Cc1ccc2c(c1)CN(C1CCC(=O)NC1=O)C2=O)C1(C)CCC1` (stereo partly shown) [Example 207]: the DC50 in experiment [1] was over 1000 nM; in experiment [2] it was 2 nM. Moreover, the “IKZF2 Dmax” value in experiment [2] is 94%.

Turning to `[2H]C1(N[C@H]2CCCC[C@@H]2Cc2ccc3c(c2F)CN(C2CCC(=O)NC2=O)C3=O)CCC2(CC2)CC1` (stereo partly shown) [Example 210], in experiment [1], the Dmax was 68% and the DC50 amounted to 30 nM. In experiment [2], the Dmax was 97% and the DC50 was determined as 1 nM.

Take `[2H]C1(N[C@H]2CCCC[C@@H]2Cc2ccc3c(c2F)CN(C2CCC(=O)NC2=O)C3=O)CCCCC1` (stereo partly shown) [Example 211]: in experiment [1], the Dmax was 37% and the DC50 came to 54 nM. Further, in experiment [2], the Dmax came to 98% and the DC50 was found to be 1 nM.

`[2H]C1(N[C@H]2CCCC[C@@H]2Cc2ccc3c(c2F)CN(C2CCC(=O)NC2=O)C3=O)CCCC1` (stereo partly shown) [Example 212]: in experiment [1], the Dmax was found to be 42% and the DC50 amounted to 45 nM. Besides, in experiment [2], the Dmax was 98% and the DC50 worked out at 1 nM.

Turning to `[2H]C1(N[C@H]2CCCC[C@@H]2Cc2ccc3c(c2F)CN(C2CCC(=O)NC2=O)C3=O)CC2(CC2)C1` (stereo partly shown) [Example 213], the figures for the Dmax in experiment [1] and in experiment [2] were 45% and 98%, respectively. The DC50 in experiment [1] was found to be 41 nM; in experiment [2] it was 2 nM.

With `[2H]C1(N[C@H]2CCCC[C@@H]2Cc2ccc3c(c2)CN(C2CCC(=O)NC2=O)C3=O)CCCCC1` (stereo partly shown) [Example 215], the Dmax is 29% in experiment [1] and 97% in experiment [2]. Also, the DC50 stood at 174 nM in experiment [1] and 2 nM in experiment [2].

Take `O=C1CCC(N2Cc3cc(C[C@H]4CCCC[C@@H]4NC4CCC(C(F)F)CC4)ccc3C2=O)C(=O)N1` (stereo partly shown) [Example 216]: in experiment [1], the Dmax came to 34% and the DC50 came to 51 nM. In experiment [2], the Dmax turned out to be 98% and the DC50 is 2 nM.

With `O=C1CCC(N2Cc3cc(C[C@H]4CCCC[C@@H]4NC4CCCCC45CC5)ccc3C2=O)C(=O)N1` (stereo partly shown) [Example 228], the DC50 in experiment [1] is over 1000 nM. Further, in experiment [2], the maximal degradation (Dmax) is 94% and the DC50 came out at 9 nM.

On to `O=C1CCC(N2Cc3cc(C[C@H]4CCCC[C@@H]4NC4CCCCC45CC5)ccc3C2=O)C(=O)N1` (stereo partly shown) [Example 229], for which the results for the DC50 in experiment [1] and in experiment [2] were over 1000 nM and 8 nM, respectively. Further, the “IKZF2 Dmax” value in experiment [2] is on record as 97%.

As for `CC(N[C@H]1CCCC[C@@H]1Cc1ccc2c(c1)CN(C1CCC(=O)NC1=O)C2=O)C1(C)CC1` (stereo partly shown) [Example 234], the DC50 is over 1000 nM in experiment [1] and 11 nM in experiment [2]. In addition, the Dmax in experiment [2] was determined as 98%.

Regarding `CC(N[C@H]1CCCC[C@@H]1Cc1ccc2c(c1)CN(C1CCC(=O)NC1=O)C2=O)C1(C)CC1` (stereo partly shown) [Example 235], the DC50 in experiment [1] was over 1000 nM. For the same molecule, in experiment [2], the DC50 was 9 nM and the “IKZF2 Dmax” value came to 97%.

In the case of `C[C@H]1CCCC(N[C@H]2CCCC[C@@H]2Cc2ccc3c(c2)CN(C2CCC(=O)NC2=O)C3=O)C1` (stereo partly shown) [Example 236], in experiment [1], the Dmax is 34% and the DC50 stood at 122 nM. In experiment [2], the Dmax is 98% and the DC50 came out at 6 nM.

On to `C[C@H]1CCCC(N[C@H]2CCCC[C@@H]2Cc2ccc3c(c2)CN(C2CCC(=O)NC2=O)C3=O)C1` (stereo partly shown) [Example 237], for which, in experiment [1], the DC50 came out at 208 nM and the “IKZF1 Dmax” value was 39%. Moreover, in experiment [2], the DC50 was determined as 2 nM and the “IKZF2 Dmax” value amounted to 96%.

`CCC(C)N[C@H]1CCCO[C@@H]1Cc1ccc2c(c1F)CN(C1CCC(=O)NC1=O)C2=O` (stereo partly drawn) [Example 304, 3-(5-(((2R,3S)-3-(sec-butylamino)tetrahydro-2H-pyran-2-yl)methyl)-4-fluoro-1-oxoisoindolin-2-yl)piperidine-2,6-dione]: the DC50 in experiment [1] was over 1000 nM. Moreover, in experiment [2], the Dmax stood at 97% and the DC50 worked out at 3 nM.

`CC(C)C(C)N[C@H]1CCCO[C@@H]1Cc1ccc2c(c1F)CN(C1CCC(=O)NC1=O)C2=O` (stereo partly shown) [Example 306]: the DC50 in experiment [1] is over 1000 nM; in experiment [2], 10 nM. Moreover, the Dmax in experiment [2] was 95%.

For the molecule `CCC(C)N[C@H]1CCCC[C@@H]1Cc1ccc2c(c1F)CN(C1CCC(=O)NC1=O)C2=O` (stereo partly shown) [Example 307], in experiment [1], the Dmax was determined as 40% and the DC50 is 111 nM. Further, in experiment [2], the Dmax was 96% and the DC50 stood at 1 nM.

For `CC(N[C@H]1CCCC[C@@H]1Cc1ccc2c(c1)CN(C1CCC(=O)NC1=O)C2=O)C1(C(F)F)CC1` (stereo partly shown) [Example 311], the DC50 in experiment [1] is over 1000 nM; in experiment [2], 11 nM. In experiment [2], this molecule had a Dmax of 95%.

For the molecule `CC(N[C@H]1CCCC[C@@H]1Cc1ccc2c(c1)CN(C1CCC(=O)NC1=O)C2=O)C1(C(F)F)CC1` (stereo partly shown) [Example 312], the figures for the DC50 in experiment [1] and in experiment [2] were over 1000 nM and 9 nM, respectively. Moreover, the “IKZF2 Dmax” value in experiment [2] was determined as 95%.

For the molecule `O=C1CCC(N2Cc3cc(C[C@H]4CC(F)(F)CC[C@@H]4NC4CCCCC4)ccc3C2=O)C(=O)N1` (stereo partly drawn) [Example 313, 3-(5-(((1S,2S)-2-(cyclohexylamino)-5,5-difluorocyclohexyl)methyl)-1-oxoisoindolin-2-yl)piperidine-2,6-dione], in experiment [1], the DC50 is over 1000 nM. In addition, in experiment [2], the greatest degradation seen (Dmax) was 88% and the DC50 is 27 nM.

As to `O=C1CCC(N2Cc3cc(C[C@H]4C=C(F)CC[C@@H]4NC4CCCCC4)ccc3C2=O)C(=O)N1` (stereo partly drawn) [Example 314, 3-(5-(((1S,6S)-6-(cyclohexylamino)-3-fluorocyclohex-2-en-1-yl)methyl)-1-oxoisoindolin-2-yl)piperidine-2,6-dione], the Dmax came out at 30% in experiment [1] and 70% in experiment [2]. Also, the DC50 was 653 nM in experiment [1] and 90 nM in experiment [2].

With `CC(C)N[C@H]1CCC(F)(F)C[C@@H]1Cc1ccc2c(c1)CN(C1CCC(=O)NC1=O)C2=O` (stereo partly shown) [Example 315], in experiment [1], the DC50 is over 1000 nM. For the same molecule, in experiment [2], the Dmax was 88% and the DC50 is 28 nM.

For `CC(N[C@H]1CCCO[C@@H]1Cc1ccc2c(c1F)CN(C1CCC(=O)NC1=O)C2=O)C1COC1` (stereo partly shown) [Example 318], the DC50 in experiment [1] was over 1000 nM. In addition, in experiment [2], the Dmax was determined as 96% and the DC50 amounted to 20 nM.
